Source: PubChem BioAssay (NCI)
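Step 1: Grow cells in 96-well plates. Step 2: Expose to compound for 48 hours at 5 concentrations. Step 3: Interpolate endpoints linearly; if unreached, use highest concentration. TGI marks complete inhibition of growth.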

What follows are compounds tested on OVCAR-5 ovarian (assay: inhibition of tumour cell growth, NCI panel, 48 h).

| SMILES | TGI [µM] |
| --- | --- |
| COc1cc(C2SCC(=O)N2c2ccccc2Cl)cc(OC)c1OC (configuration not stated) | > 100 |
| COc1cc(S(=O)(=O)Nc2nc(-c3ccc(N4C(=O)C(CC(=O)O)SC4c4ccccc4O)cc3)cs2)ccc1Cl (configuration not stated) | > 100 |
| COCC(N=CN1CCCc2ccccc2[C@@H]1CCCCl)C(C)(C)C (some centres not stated) | 49.5 |
| COc1ccc(Nc2nnc(CCCCCCCCc3nnc(Nc4ccc(OC)cc4)o3)o2)cc1 | > 100 |
| C[C@]12C[C@H](c3ccccc3)Nc3ccccc3N1C(c1ccccc1)=NO2 | > 100 |
| Cc1ccc2nc(CN3CCCC(O)C3)cc(=O)n2c1 (configuration not stated) | > 100 |
| CC[C@](O)(CC(=O)O[C@H]1C(=O)O[C@@H]2C[C@H]3C(C)=CC(=O)[C@@H](O)[C@]3(C)[C@H]3[C@@]4(O)OC[C@]32[C@@H]1[C@@H](C)[C@H]4O)C(C)C | < 0.01 |
| O=C1CC(CC(O)[C@@H]2CCCC[C@@H]2O)CC(=O)N1c1ccccc1 (some centres not stated) | > 100 |
| OC1(CCc2ccccc2)COC(C(F)(F)F)(C(F)(F)F)C1 (configuration not stated) | > 100 |

Each compound was assayed on IGROV1 ovarian (assay: inhibition of tumour cell growth, NCI panel, 48 h).

| SMILES | TGI [µM] |
| --- | --- |
| COc1cc2c[n+](C)c3c4cc5c(cc4ccc3c2cc1OC)OCO5 | 3.9 |
| COc1cc(C2SCC(=O)N2c2ccccc2Cl)cc(OC)c1OC (configuration not stated) | > 100 |
| COc1cc(S(=O)(=O)Nc2nc(-c3ccc(N4C(=O)C(CC(=O)O)SC4c4ccccc4O)cc3)cs2)ccc1Cl (configuration not stated) | > 100 |
| COCC(N=CN1CCCc2ccccc2[C@@H]1CCCCl)C(C)(C)C (some centres not stated) | 14.2 |
| COc1ccc(Nc2nnc(CCCCCCCCc3nnc(Nc4ccc(OC)cc4)o3)o2)cc1 | > 100 |
| C[C@]12C[C@H](c3ccccc3)Nc3ccccc3N1C(c1ccccc1)=NO2 | > 100 |
| Cc1ccc2nc(CN3CCCC(O)C3)cc(=O)n2c1 (configuration not stated) | > 100 |
| CC[C@](O)(CC(=O)O[C@H]1C(=O)O[C@@H]2C[C@H]3C(C)=CC(=O)[C@@H](O)[C@]3(C)[C@H]3[C@@]4(O)OC[C@]32[C@@H]1[C@@H](C)[C@H]4O)C(C)C | < 0.01 |
| O=C1CC(CC(O)[C@@H]2CCCC[C@@H]2O)CC(=O)N1c1ccccc1 (some centres not stated) | > 100 |
| OC1(CCc2ccccc2)COC(C(F)(F)F)(C(F)(F)F)C1 (configuration not stated) | > 100 |

The compounds below were run on MDA-MB-231 breast (assay: inhibition of tumour cell growth, NCI panel, 48 h).

| SMILES | TGI [µM] |
| --- | --- |
| COc1cc2c[n+](C)c3c4cc5c(cc4ccc3c2cc1OC)OCO5 | > 100 |
| COc1cc(C2SCC(=O)N2c2ccccc2Cl)cc(OC)c1OC (configuration not stated) | > 100 |
| COc1cc(S(=O)(=O)Nc2nc(-c3ccc(N4C(=O)C(CC(=O)O)SC4c4ccccc4O)cc3)cs2)ccc1Cl (configuration not stated) | > 100 |
| COCC(N=CN1CCCc2ccccc2[C@@H]1CCCCl)C(C)(C)C (some centres not stated) | 9.48 |
| COc1ccc(Nc2nnc(CCCCCCCCc3nnc(Nc4ccc(OC)cc4)o3)o2)cc1 | > 100 |
| C[C@]12C[C@H](c3ccccc3)Nc3ccccc3N1C(c1ccccc1)=NO2 | > 100 |
| Cc1ccc2nc(CN3CCCC(O)C3)cc(=O)n2c1 (configuration not stated) | > 100 |
| CC[C@](O)(CC(=O)O[C@H]1C(=O)O[C@@H]2C[C@H]3C(C)=CC(=O)[C@@H](O)[C@]3(C)[C@H]3[C@@]4(O)OC[C@]32[C@@H]1[C@@H](C)[C@H]4O)C(C)C | < 0.0119 |
| O=C1CC(CC(O)[C@@H]2CCCC[C@@H]2O)CC(=O)N1c1ccccc1 (some centres not stated) | > 100 |
| OC1(CCc2ccccc2)COC(C(F)(F)F)(C(F)(F)F)C1 (configuration not stated) | > 100 |

Each compound was assayed on HL-60(TB) leukemia (assay: inhibition of tumour cell growth, NCI panel, 48 h).

| SMILES | TGI [µM] |
| --- | --- |
| COc1cc2c[n+](C)c3c4cc5c(cc4ccc3c2cc1OC)OCO5 | 22.5 |
| COc1cc(C2SCC(=O)N2c2ccccc2Cl)cc(OC)c1OC (configuration not stated) | > 100 |
| COc1cc(S(=O)(=O)Nc2nc(-c3ccc(N4C(=O)C(CC(=O)O)SC4c4ccccc4O)cc3)cs2)ccc1Cl (configuration not stated) | 57 |
| COCC(N=CN1CCCc2ccccc2[C@@H]1CCCCl)C(C)(C)C (some centres not stated) | 8.97 |
| COc1ccc(Nc2nnc(CCCCCCCCc3nnc(Nc4ccc(OC)cc4)o3)o2)cc1 | > 100 |
| C[C@]12C[C@H](c3ccccc3)Nc3ccccc3N1C(c1ccccc1)=NO2 | > 100 |
| Cc1ccc2nc(CN3CCCC(O)C3)cc(=O)n2c1 (configuration not stated) | > 100 |
| CC[C@](O)(CC(=O)O[C@H]1C(=O)O[C@@H]2C[C@H]3C(C)=CC(=O)[C@@H](O)[C@]3(C)[C@H]3[C@@]4(O)OC[C@]32[C@@H]1[C@@H](C)[C@H]4O)C(C)C | < 0.01 |
| O=C1CC(CC(O)[C@@H]2CCCC[C@@H]2O)CC(=O)N1c1ccccc1 (some centres not stated) | > 100 |
| OC1(CCc2ccccc2)COC(C(F)(F)F)(C(F)(F)F)C1 (configuration not stated) | > 100 |

Each compound was assayed on SK-MEL-5 melanoma (assay: inhibition of tumour cell growth, NCI panel, 48 h).

| SMILES | TGI [µM] |
| --- | --- |
| COc1cc2c[n+](C)c3c4cc5c(cc4ccc3c2cc1OC)OCO5 | 23.2 |
| COc1cc(C2SCC(=O)N2c2ccccc2Cl)cc(OC)c1OC (configuration not stated) | > 100 |
| COc1cc(S(=O)(=O)Nc2nc(-c3ccc(N4C(=O)C(CC(=O)O)SC4c4ccccc4O)cc3)cs2)ccc1Cl (configuration not stated) | > 100 |
| COCC(N=CN1CCCc2ccccc2[C@@H]1CCCCl)C(C)(C)C (some centres not stated) | 9.35 |
| COc1ccc(Nc2nnc(CCCCCCCCc3nnc(Nc4ccc(OC)cc4)o3)o2)cc1 | > 100 |
| C[C@]12C[C@H](c3ccccc3)Nc3ccccc3N1C(c1ccccc1)=NO2 | > 100 |
| CC[C@](O)(CC(=O)O[C@H]1C(=O)O[C@@H]2C[C@H]3C(C)=CC(=O)[C@@H](O)[C@]3(C)[C@H]3[C@@]4(O)OC[C@]32[C@@H]1[C@@H](C)[C@H]4O)C(C)C | < 0.01 |
| O=C1CC(CC(O)[C@@H]2CCCC[C@@H]2O)CC(=O)N1c1ccccc1 (some centres not stated) | > 100 |
| OC1(CCc2ccccc2)COC(C(F)(F)F)(C(F)(F)F)C1 (configuration not stated) | > 100 |

These compounds were tested on RXF 393 renal (assay: inhibition of tumour cell growth, NCI panel, 48 h).

| SMILES | TGI [µM] |
| --- | --- |
| COc1cc2c[n+](C)c3c4cc5c(cc4ccc3c2cc1OC)OCO5 | 49.7 |
| COc1cc(S(=O)(=O)Nc2nc(-c3ccc(N4C(=O)C(CC(=O)O)SC4c4ccccc4O)cc3)cs2)ccc1Cl (configuration not stated) | > 100 |
| COCC(N=CN1CCCc2ccccc2[C@@H]1CCCCl)C(C)(C)C (some centres not stated) | 32.5 |
| COc1ccc(Nc2nnc(CCCCCCCCc3nnc(Nc4ccc(OC)cc4)o3)o2)cc1 | > 100 |
| C[C@]12C[C@H](c3ccccc3)Nc3ccccc3N1C(c1ccccc1)=NO2 | > 100 |
| CC[C@](O)(CC(=O)O[C@H]1C(=O)O[C@@H]2C[C@H]3C(C)=CC(=O)[C@@H](O)[C@]3(C)[C@H]3[C@@]4(O)OC[C@]32[C@@H]1[C@@H](C)[C@H]4O)C(C)C | < 0.01 |
| O=C1CC(CC(O)[C@@H]2CCCC[C@@H]2O)CC(=O)N1c1ccccc1 (some centres not stated) | > 100 |
| OC1(CCc2ccccc2)COC(C(F)(F)F)(C(F)(F)F)C1 (configuration not stated) | > 100 |

What follows are compounds tested on DU-145 prostate (assay: inhibition of tumour cell growth, NCI panel, 48 h).

| SMILES | TGI [µM] |
| --- | --- |
| COc1cc2c[n+](C)c3c4cc5c(cc4ccc3c2cc1OC)OCO5 | 9.19 |
| COc1cc(C2SCC(=O)N2c2ccccc2Cl)cc(OC)c1OC (configuration not stated) | > 100 |
| COc1cc(S(=O)(=O)Nc2nc(-c3ccc(N4C(=O)C(CC(=O)O)SC4c4ccccc4O)cc3)cs2)ccc1Cl (configuration not stated) | > 100 |
| COCC(N=CN1CCCc2ccccc2[C@@H]1CCCCl)C(C)(C)C (some centres not stated) | > 100 |
| COc1ccc(Nc2nnc(CCCCCCCCc3nnc(Nc4ccc(OC)cc4)o3)o2)cc1 | > 100 |
| C[C@]12C[C@H](c3ccccc3)Nc3ccccc3N1C(c1ccccc1)=NO2 | > 100 |
| Cc1ccc2nc(CN3CCCC(O)C3)cc(=O)n2c1 (configuration not stated) | > 100 |
| CC[C@](O)(CC(=O)O[C@H]1C(=O)O[C@@H]2C[C@H]3C(C)=CC(=O)[C@@H](O)[C@]3(C)[C@H]3[C@@]4(O)OC[C@]32[C@@H]1[C@@H](C)[C@H]4O)C(C)C | < 0.01 |
| O=C1CC(CC(O)[C@@H]2CCCC[C@@H]2O)CC(=O)N1c1ccccc1 (some centres not stated) | > 100 |
| OC1(CCc2ccccc2)COC(C(F)(F)F)(C(F)(F)F)C1 (configuration not stated) | > 100 |

Each compound was assayed on KM12 colon (assay: inhibition of tumour cell growth, NCI panel, 48 h).

| SMILES | TGI [µM] |
| --- | --- |
| COc1cc2c[n+](C)c3c4cc5c(cc4ccc3c2cc1OC)OCO5 | 7.21 |
| COc1cc(C2SCC(=O)N2c2ccccc2Cl)cc(OC)c1OC (configuration not stated) | > 100 |
| COc1cc(S(=O)(=O)Nc2nc(-c3ccc(N4C(=O)C(CC(=O)O)SC4c4ccccc4O)cc3)cs2)ccc1Cl (configuration not stated) | > 100 |
| COCC(N=CN1CCCc2ccccc2[C@@H]1CCCCl)C(C)(C)C (some centres not stated) | 20.3 |
| COc1ccc(Nc2nnc(CCCCCCCCc3nnc(Nc4ccc(OC)cc4)o3)o2)cc1 | > 100 |
| C[C@]12C[C@H](c3ccccc3)Nc3ccccc3N1C(c1ccccc1)=NO2 | > 100 |
| Cc1ccc2nc(CN3CCCC(O)C3)cc(=O)n2c1 (configuration not stated) | > 100 |
| CC[C@](O)(CC(=O)O[C@H]1C(=O)O[C@@H]2C[C@H]3C(C)=CC(=O)[C@@H](O)[C@]3(C)[C@H]3[C@@]4(O)OC[C@]32[C@@H]1[C@@H](C)[C@H]4O)C(C)C | < 0.01 |
| O=C1CC(CC(O)[C@@H]2CCCC[C@@H]2O)CC(=O)N1c1ccccc1 (some centres not stated) | > 100 |
| OC1(CCc2ccccc2)COC(C(F)(F)F)(C(F)(F)F)C1 (configuration not stated) | > 100 |

The compounds below were run on PC-3 prostate (assay: inhibition of tumour cell growth, NCI panel, 48 h).

| SMILES | TGI [µM] |
| --- | --- |
| COc1cc2c[n+](C)c3c4cc5c(cc4ccc3c2cc1OC)OCO5 | > 100 |
| COc1cc(C2SCC(=O)N2c2ccccc2Cl)cc(OC)c1OC (configuration not stated) | > 100 |
| COc1cc(S(=O)(=O)Nc2nc(-c3ccc(N4C(=O)C(CC(=O)O)SC4c4ccccc4O)cc3)cs2)ccc1Cl (configuration not stated) | > 100 |
| COCC(N=CN1CCCc2ccccc2[C@@H]1CCCCl)C(C)(C)C (some centres not stated) | 91.4 |
| COc1ccc(Nc2nnc(CCCCCCCCc3nnc(Nc4ccc(OC)cc4)o3)o2)cc1 | > 100 |
| C[C@]12C[C@H](c3ccccc3)Nc3ccccc3N1C(c1ccccc1)=NO2 | > 100 |
| Cc1ccc2nc(CN3CCCC(O)C3)cc(=O)n2c1 (configuration not stated) | > 100 |
| CC[C@](O)(CC(=O)O[C@H]1C(=O)O[C@@H]2C[C@H]3C(C)=CC(=O)[C@@H](O)[C@]3(C)[C@H]3[C@@]4(O)OC[C@]32[C@@H]1[C@@H](C)[C@H]4O)C(C)C | < 0.01 |
| O=C1CC(CC(O)[C@@H]2CCCC[C@@H]2O)CC(=O)N1c1ccccc1 (some centres not stated) | > 100 |
| OC1(CCc2ccccc2)COC(C(F)(F)F)(C(F)(F)F)C1 (configuration not stated) | > 100 |

Each compound was assayed on BT-549 breast (assay: inhibition of tumour cell growth, NCI panel, 48 h).

| SMILES | TGI [µM] |
| --- | --- |
| COc1cc2c[n+](C)c3c4cc5c(cc4ccc3c2cc1OC)OCO5 | 78.4 |
| COc1cc(C2SCC(=O)N2c2ccccc2Cl)cc(OC)c1OC (configuration not stated) | > 100 |
| COc1ccc(Nc2nnc(CCCCCCCCc3nnc(Nc4ccc(OC)cc4)o3)o2)cc1 | > 100 |
| C[C@]12C[C@H](c3ccccc3)Nc3ccccc3N1C(c1ccccc1)=NO2 | > 100 |
| Cc1ccc2nc(CN3CCCC(O)C3)cc(=O)n2c1 (configuration not stated) | > 100 |
| O=C1CC(CC(O)[C@@H]2CCCC[C@@H]2O)CC(=O)N1c1ccccc1 (some centres not stated) | > 100 |
